Values joined by “and” are separate entries in the source; they are usually repeats but may differ in a detail not shown here. Equal values may be shown once.
What was measured:
[1] = test system: MMP-12; parameters: method as in PMID 27996256, PMID 23343195; conditions: cited from earlier work
[2] = biological target: T1, human MT1-MMP/MMP-14 (catalytic domain) (Homo sapiens, UniProt P50281); assay: Enzyme inhibition kinetics, fluorogenic substrate ES001; type: biochemical; conditions: inhibitor 10 μM
T1 construct: human MT1-MMP/MMP-14 (catalytic domain); purchased Calbiochem (San Diego, CA, USA)

| Compound | pH dependence of Ki [1] | vi/v0 (relative enzyme activity with inhibitor), single determinations ([2]; preincubation 15 min) | vi/v0 (relative enzyme activity with inhibitor), single determinations ([2]; preincubation 30 min) |
| --- | --- | --- | --- |
| NC(=O)C(CCC(=O)O)NC(=O)C(CCC(=O)O)NC(=O)C(Cc1cc(-c2ccc(-c3cccc(Cl)c3)cc2)no1)CP(=O)(O)c1ccc(Br)cc1 (stereo not drawn) [H-1] | increasing approximately ten times for each unit increase in buffer pH |  |  |
| NC(=O)C(Cc1c[nH]c2ccccc12)NC(=O)C(CCCc1ccccc1)CP(=O)(O)C(Cc1ccccc1)NC(=O)OCc1ccccc1 (stereo not drawn) [H-2] |  | 0.1646 and 0.1715 and 0.1368 and 0.1654 | 0.1465 and 0.1449 and 0.1477 and 0.1505 |

Source: publication PMC12316308, “Interactions of substrates and phosphinyl containing inhibitors with bacterial and human zinc proteases” (PLOS One, 2025)
